biological target: endothelial lipase (EL) (Homo sapiens (Human), UniProt Q9Y5X9); experiment: Endothelial lipase (EL) enzymatic assay with fluorescent substrate A10070 in DMPG vesicles; assay type: biochemical; settings: conditioned media from HT-1080 cells overexpressing endogenous EL; 20 min preincubation at 37° C.; read-out: HLE_EL_CRC IC50
Description: Endothelial lipase activity was measured using a fluorescent substrate, A10070, (Invitrogen, CA) doped into an artificial vesicle containing DMPG (Avanti Polar Lipids) as the excipient. Vesicles were prepared by combining 285 uL of 1 mM
DMPG in a 1:1 mixture of MeOH and CHCl3 with 15 uL of 1 mM A10070 in a 1:1 mixture of MeOH and CHCl3. The mixture was dried under nitrogen and resuspended in 150 uL of 50 mM HEPES pH 8.0 buffer containing 100 mM NaCl and 0.2 mM EDTA. The sample was allowed to sit at rt for 15 min and then was sonicated 3×4 mins on ice with a Branson Sonicator using duty cycle 1. This preparation provides vesicles with a mole fraction of 0.05 for the FRET substrate.
The enzymatic assay was measured using white, opaque 96-well half area plates. Each well contained 60 uL of assay buffer (50 mM HEPES pH 8.0, 50 mM NaCl and 1 mM CaCl2) and 2 ul of a DMSO solution containing compound of interest. Conditioned media obtained from HT-1080 cells, which were transformed by RAGE technology (Athersys) to overexpress endogenous EL, was added and the reaction was allowed to incubate for 20 min at 37° C. with gentle agitation. The reaction was started by the addition of 20 uL of a 1:4 dilution of vesicles. The final total reaction volume was 100 uL. The reaction rates were measured on a Gemini plate reader with an excitation wavelength of 488 nm and a emission of 530 nm. Readings were taken every 20 seconds for 10 min with agitation between each reading. The slope of the linear portion of the readout was used to calculate the rate of the reaction.
The exemplified examples disclosed in the present invention were tested in the EL assay described above and found having EL inhibitory activity.

endothelial lipase (EL), sequence (Q9Y5X9 21-500): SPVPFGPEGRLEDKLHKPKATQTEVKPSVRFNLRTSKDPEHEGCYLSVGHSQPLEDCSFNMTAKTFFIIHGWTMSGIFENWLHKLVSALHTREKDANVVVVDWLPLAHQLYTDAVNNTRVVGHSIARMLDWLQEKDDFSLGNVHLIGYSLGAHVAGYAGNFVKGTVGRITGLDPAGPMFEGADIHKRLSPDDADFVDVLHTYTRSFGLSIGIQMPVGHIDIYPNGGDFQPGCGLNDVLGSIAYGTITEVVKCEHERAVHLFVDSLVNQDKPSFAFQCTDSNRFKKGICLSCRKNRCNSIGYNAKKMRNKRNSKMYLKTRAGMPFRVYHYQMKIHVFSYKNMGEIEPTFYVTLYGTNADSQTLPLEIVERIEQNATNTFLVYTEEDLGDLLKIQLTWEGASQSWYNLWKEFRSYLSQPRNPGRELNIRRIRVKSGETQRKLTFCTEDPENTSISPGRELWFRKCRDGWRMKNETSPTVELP

SMILES | IC50
CN1CC(C(=O)NC2CC[C@H](c3ccccc3)C2)=C(O)C1=O (single isomer, unassigned; isomer a) [Example 173] | 8470 nM
CN1CC(C(=O)NCc2ccc(Oc3ccc(F)cc3)cc2)=C(O)C1=O [Example 8, N-(4-(4-fluorophenoxy)benzyl)-4-hydroxy-1-methyl-5-oxo-2,5-dihydro-1H-pyrrole-3-carboxamide] | 49.5 nM
CN1CC(C(=O)NCc2ccccc2-c2ccccc2)=C(O)C1=O [Example 18, N-(biphenyl-2-ylmethyl)-4-hydroxy-1-methyl-5-oxo-2,5-dihydro-1H-pyrrole-3-carboxamide] | 27 nM
CC(C)CN1CC(C(=O)NCCCCc2nc(-c3ccc(Cl)c(Cl)c3)no2)=C(O)C1=O [Example 21, N-(4-(3-(3,4-dichlorophenyl)-1,2,4-oxadiazol-5-yl)butyl)-4-hydroxy-1-isobutyl-5-oxo-2,5-dihydro-1H-pyrrole-3-carboxamide] | 15.4 nM
CN1CC(C(=O)NCc2ccc(OC3CCOCC3)cc2)=C(O)C1=O [Example 22, 4-hydroxy-1-methyl-5-oxo-N-(4-(tetrahydro-2H-pyran-4-yloxy)benzyl)-2,5-dihydro-1H-pyrrole-3-carboxamide] | 270 nM
CN1CC(C(=O)NCc2ccc(C(=O)N3CCCCC3)cc2)=C(O)C1=O [Example 24, 4-hydroxy-1-methyl-5-oxo-N-(4-(piperidine-1-carbonyl)benzyl)-2,5-dihydro-1H-pyrrole-3-carboxamide] | 9300 nM
Cc1ccc(Oc2ccc(CNC(=O)C3=C(O)C(=O)N(C)C3)cc2)c(C)c1 [Example 34, N-(4-(2,4-dimethylphenoxy)benzyl)-4-hydroxy-1-methyl-5-oxo-2,5-dihydro-1H-pyrrole-3-carboxamide] | 32.1 nM
CN1CC(C(=O)NCc2cccc(-c3ccccc3Cl)c2)=C(O)C1=O [Example 62, N-((2′-chlorobiphenyl-3-yl)methyl)-4-hydroxy-1-methyl-5-oxo-2,5-dihydro-1H-pyrrole-3-carboxamide] | 246 nM
CN1CC(C(=O)NCc2cccc(-c3ccccc3F)c2)=C(O)C1=O [Example 63, N-((2′-fluorobiphenyl-3-yl)methyl)-4-hydroxy-1-methyl-5-oxo-2,5-dihydro-1H-pyrrole-3-carboxamide] | 250 nM
CC(=O)c1cccc(-c2cccc(CNC(=O)C3=C(O)C(=O)N(C)C3)c2)c1 [Example 66, N-((3′-acetylbiphenyl-3-yl)methyl)-4-hydroxy-1-methyl-5-oxo-2,5-dihydro-1H-pyrrole-3-carboxamide] | 285 nM
CN1CC(C(=O)NCc2cccc(-c3ccc(CNS(C)(=O)=O)cc3)c2)=C(O)C1=O [Example 83, 4-hydroxy-1-methyl-N-((4′-(methylsulfonamidomethyl)biphenyl-3-yl)methyl)-5-oxo-2,5-dihydro-1H-pyrrole-3-carboxamide] | 257 nM
CC(=O)NCc1ccc(-c2cccc(CNC(=O)C3=C(O)C(=O)N(C)C3)c2)cc1 [Example 85, N-((4′-(acetamidomethyl)biphenyl-3-yl)methyl)-4-hydroxy-1-methyl-5-oxo-2,5-dihydro-1H-pyrrole-3-carboxamide] | 241 nM
C[C@@H](NC(=O)C1=C(O)C(=O)N(C)C1)c1cccc(-c2cccc(C(F)(F)F)c2)c1 [Example 91, (R)-4-hydroxy-1-methyl-5-oxo-N-(1-(3′-(trifluoromethyl)biphenyl-3-yl)ethyl)-2,5-dihydro-1H-pyrrole-3-carboxamide] | 271 nM
C[C@@H](NC(=O)C1=C(O)C(=O)N(C)C1)c1cccc(-c2cccc(F)c2)c1 [Example 92, (R)-N-(1-(3′-fluorobiphenyl-3-yl)ethyl)-4-hydroxy-1-methyl-5-oxo-2,5-dihydro-1H-pyrrole-3-carboxamide] | 246 nM
C[C@@H](NC(=O)C1=C(O)C(=O)N(C)C1)c1cccc(-c2cccc(C#N)c2)c1 [Example 96, (R)-N-(1-(3′-cyanobiphenyl-3-yl)ethyl)-4-hydroxy-1-methyl-5-oxo-2,5-dihydro-1H-pyrrole-3-carboxamide] | 277 nM
C[C@@H](NC(=O)C1=C(O)C(=O)N(C)C1)c1cccc(-c2cccc(C(N)=O)c2)c1 [Example 103, (R)-N-(1-(3′-carbamoylbiphenyl-3-yl)ethyl)-4-hydroxy-1-methyl-5-oxo-2,5-dihydro-1H-pyrrole-3-carboxamide] | 49.6 nM
CC(=O)NCc1ccc(-c2cccc([C@@H](C)NC(=O)C3=C(O)C(=O)N(C)C3)c2)cc1 [Example 104, (R)-N-(1-(4′-(acetamidomethyl)biphenyl-3-yl)ethyl)-4-hydroxy-1-methyl-5-oxo-2,5-dihydro-1H-pyrrole-3-carboxamide] | 254 nM
CCN1CC(C(=O)N[C@@H]2CCC(c3ccccc3)c3ccccc32)=C(O)C1=O (stereo partly drawn) [Example 146, 1-ethyl-4-hydroxy-5-oxo-N-((1R)-4-phenyl-1,2,3,4-tetrahydronaphthalen-1-yl)-2,5-dihydro-1H-pyrrole-3-carboxamide] | 50 nM
CN1CC(C(=O)NCC2CCN(C(=O)c3ccc(Cl)c(Cl)c3)CC2)=C(O)C1=O [Example 157, N-((1-(3,4-dichlorobenzoyl)piperidin-4-yl)methyl)-4-hydroxy-1-methyl-5-oxo-2,5-dihydro-1H-pyrrole-3-carboxamide] | 4840 nM
O=C(N[C@H]1CC[C@@H](c2ccccc2)CC1)C1=C(O)C(=O)N(CCCC(F)(F)F)C1 [Example 168, 4-hydroxy-5-oxo-N-(cis-4-phenylcyclohexyl)-1-(4,4,4-trifluorobutyl)-2,5-dihydro-1H-pyrrole-3-carboxamide] | 252 nM
O=C(N[C@H]1CC[C@@H](c2ccccc2)CC1)C1=C(O)C(=O)N(CC(F)(F)C(F)(F)F)C1 [Example 169, 4-hydroxy-5-oxo-1-(2,2,3,3,3-pentafluoropropyl)-N-(cis-4-phenylcyclohexyl)-2,5-dihydro-1H-pyrrole-3-carboxamide] | 7170 nM
O=C(N[C@H]1CC[C@@H](c2ccccc2)CC1)C1=C(O)C(=O)N(CCS(=O)(=O)c2ccccc2)C1 [Example 172, 4-hydroxy-5-oxo-N-(cis-4-phenylcyclohexyl)-1-(2-(phenylsulfonyl)ethyl)-2,5-dihydro-1H-pyrrole-3-carboxamide] | 4720 nM
CN(CCN1CC(C(=O)N[C@H]2CC[C@@H](c3ccccc3)CC2)=C(O)C1=O)C(=O)/C=C/C(F)(F)F [Example 178, 4-hydroxy-5-oxo-N-(cis-4-phenylcyclohexyl)-1-(2-((E)-4,4,4-trifluoro-N-methylbut-2-enamido)ethyl)-2,5-dihydro-1H-pyrrole-3-carboxamide] | 9920 nM
O=C(N[C@H]1CC[C@@H](c2ccccc2)CC1)C1=C(O)C(=O)N(C2CCN(c3ccc(F)cc3)CC2)C1 [Example 179, 1-(1-(4-fluorophenyl)piperidin-4-yl)-4-hydroxy-5-oxo-N-(cis-4-phenylcyclohexyl)-2,5-dihydro-1H-pyrrole-3-carboxamide] | 3090 nM
CNCCCN1CC(C(=O)N[C@H]2CC[C@@H](c3ccccc3)CC2)=C(O)C1=O [Example 181, 4-hydroxy-1-(3-(methylamino)propyl)-5-oxo-N-(cis-4-phenylcyclohexyl)-2,5-dihydro-1H-pyrrole-3-carboxamide] | 5730 nM
CN1CC(N2CC(C(=O)N[C@H]3CC[C@@H](c4ccccc4)CC3)=C(O)C2=O)CC1=O (stereo partly drawn) [Example 196, 4-hydroxy-1-(1-methyl-5-oxopyrrolidin-3-yl)-5-oxo-N-(cis-4-phenylcyclohexyl)-2,5-dihydro-1H-pyrrole-3-carboxamide] | 8250 nM
CN(CCN1CC(C(=O)N[C@H]2CC[C@@H](c3ccccc3)CC2)=C(O)C1=O)c1ccccc1 [Example 210, 4-hydroxy-1-(2-(methyl(phenyl)amino)ethyl)-5-oxo-N-(cis-4-phenylcyclohexyl)-2,5-dihydro-1H-pyrrole-3-carboxamide] | 6570 nM
CCN1CC(C(=O)NCC2CCc3cnc(-c4ccc(Cl)c(Cl)c4)n3C2)=C(O)C1=O (centres unmarked) [Example 214, N-((3-(3,4-Dichlorophenyl)-5,6,7,8-tetrahydroimidazo[1,5-a]pyridin-6-yl)methyl)-1-ethyl-4-hydroxy-5-oxo-2,5-dihydro-1H-pyrrole-3-carboxamide] | 460 nM
CCN1CC(C(=O)N[C@@H]2CCc3cc(-c4ccccc4)ccc32)=C(O)C1=O [Example 218, (R)-1-ethyl-4-hydroxy-5-oxo-N-(5-phenyl-2,3-dihydro-1H-inden-1-yl)-2,5-dihydro-1H-pyrrole-3-carboxamide] | 43.5 nM

From patent US9493412B2, “Pyrrolinone carboxamide compounds useful as endothelial lipase inhibitors” (BRISTOL-MYERS SQUIBB COMPANY, priority 2011, dated 2016)
